Measurements published in the supplement of paper PMC4862054.

Tests used:
Settings in all cases: incubation time: 72 h
[1] = system: HCC1937; experiment: normalised response (% of control), CellTox Green; higher = less cell death (100 = DMSO, 0 = benzethonium chloride kill control)
Method in brief: (§1)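 Breast cancer cell lines in 20 µl suspension were added to 384-well plates containing compound at 5 concentrations, spaced in 10-fold steps across a 10,000-fold range chosen for each compound, and incubated for 72 h. CellTox Green fluorescence was read at 485/520 nm, followed by CellTiter-Glo luminescence after 10 min at room temperature. Signals on each plate were normalised so that 0.1 % DMSO equals 100 and a positive kill control equals 0. Every value in the table is the normalised signal at one concentration of the series.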

[2] = system: DU-4475; experiment: as above
Method in brief: as §1

[3] = system: CAL-120; experiment: as above
Method in brief: as §1

[4] = system: MDA-MB-453; experiment: as above
Method in brief: as §1

[5] = system: Hs578T; experiment: as above
Method in brief: as §1

[6] = system: CAL-148; experiment: as above
Method in brief: as §1

[7] = system: HDQ-P1; experiment: as above
Method in brief: as §1

[8] = system: BT-474; experiment: as above
Method in brief: as §1

[9] = system: CAL-85-1; experiment: as above
Method in brief: as §1

[10] = system: MDA-MB-436; experiment: as above
Method in brief: as §1

[11] = system: MDA-MB-468; experiment: as above
Method in brief: as §1

[12] = system: HCC1143; experiment: as above
Method in brief: as §1

[13] = system: MDA-MB-231; experiment: as above
Method in brief: as §1

[14] = system: CAL-51; experiment: as above
Method in brief: as §1

[15] = system: HCC1599; experiment: as above
Method in brief: as §1

[16] = system: MFM-223; experiment: as above
Method in brief: as §1

[17] = system: BT-549; experiment: as above
Method in brief: as §1

[18] = system: HCC1937; experiment: normalised response (% of control), CellTiter-Glo; higher = more viable cells (100 = DMSO, 0 = benzethonium chloride kill control)
Method in brief: as §1

[19] = system: DU-4475; experiment: as above
Method in brief: as §1

[20] = system: CAL-120; experiment: as above
Method in brief: as §1

[21] = system: MDA-MB-453; experiment: as above
Method in brief: as §1

[22] = system: Hs578T; experiment: as above
Method in brief: as §1

[23] = system: CAL-148; experiment: as above
Method in brief: as §1

[24] = system: MCF-10A; experiment: as above
Method in brief: as §1

[25] = system: HDQ-P1; experiment: as above
Method in brief: as §1

[26] = system: BT-474; experiment: as above
Method in brief: as §1

[27] = system: CAL-85-1; experiment: as above
Method in brief: as §1

[28] = system: MDA-MB-436; experiment: as above
Method in brief: as §1

[29] = system: MDA-MB-468; experiment: as above
Method in brief: as §1

[30] = system: HCC1143; experiment: as above
Method in brief: as §1

[31] = system: SK-BR-3; experiment: as above
Method in brief: as §1

[32] = system: MDA-MB-231; experiment: as above
Method in brief: as §1

[33] = system: CAL-51; experiment: as above
Method in brief: as §1

[34] = system: HCC1599; experiment: as above
Method in brief: as §1

[35] = system: MFM-223; experiment: as above
Method in brief: as §1

[36] = system: BT-549; experiment: as above
Method in brief: as §1

[37] = system: MCF-10A; experiment: normalised response (% of control), CellTox Green; higher = less cell death (100 = DMSO, 0 = benzethonium chloride kill control)
Method in brief: as §1

| Structure (SMILES) | normalised response [1] [%] | normalised response [2] [%] | normalised response [3] [%] | normalised response [4] [%] | normalised response [5] [%] | normalised response [6] [%] | normalised response [7] [%] | normalised response [8] [%] | normalised response [9] [%] | normalised response [10] [%] | normalised response [11] [%] | normalised response [12] [%] | normalised response [13] [%] | normalised response [14] [%] | normalised response [15] [%] | normalised response [16] [%] | normalised response [17] [%] | normalised response [18] [%] | normalised response [19] [%] | normalised response [20] [%] | normalised response [21] [%] | normalised response [22] [%] | normalised response [23] [%] | normalised response [24] [%] | normalised response [25] [%] | normalised response [26] [%] | normalised response [27] [%] | normalised response [28] [%] | normalised response [29] [%] | normalised response [30] [%] | normalised response [31] [%] | normalised response [32] [%] | normalised response [33] [%] | normalised response [34] [%] | normalised response [35] [%] | normalised response [36] [%] | normalised response [37] [%] |
| --- | --- | --- | --- | --- | --- | --- | --- | --- | --- | --- | --- | --- | --- | --- | --- | --- | --- | --- | --- | --- | --- | --- | --- | --- | --- | --- | --- | --- | --- | --- | --- | --- | --- | --- | --- | --- | --- |
| NC(=O)Nc1cc(-c2cccc(F)c2)sc1C(=O)N[C@H]1CCCNC1 [AZD7762] (100 nM) | 125 | 100 | 99.8 | 101 | 64.1 | 102 | 103 | 102 | 36.1 | 83.7 | 50.3 | 82.6 | 105 | 104 | 103 | 101 | 105 | 97.2 | 98.4 | 95.9 | 83.2 | 93 | 97.9 | 91.6 | 95.2 | 93.7 | 59.5 | 92.4 | 99.3 | 96.8 | 99.6 | 88.7 | 111 | 78.5 | 104 | 73.4 |  |
| Cc1ccc(C(=O)N(CCCN)[C@@H](c2oc3cc(Cl)ccc3c(=O)c2Cc2ccccc2)C(C)C)cc1 (10 nM) |  | 104 | 95.5 | 102 | 103 | 90.8 | 85.7 | 89.8 | 108 | 100 | 111 | 112 | 94.4 | 108 | 91.8 | 101 | 88 | 101 | 96.5 | 102 | 94.8 | 97.5 | 91.3 | 103 | 103 | 97.9 | 101 | 107 | 90.7 | 97.1 | 92.5 | 98.8 | 120 | 100 | 90.2 | 100 | 112 |
| N.N.[Cl][Pt][Cl] [Cisplatin] (100 nM) |  | 107 | 109 | 110 | 85.4 | 105 | 118 | 99.2 | 121 | 107 | 94.6 | 109 | 74 | 103 | 97.4 | 82.7 | 80.2 | 102 | 90.2 | 101 | 94.9 | 102 | 90.7 | 1.72 | 107 | 102 | 96.2 | 101 | 98.5 | 104 | 99.2 | 98.7 | 116 | 98.7 | 96.6 | 90.4 | -220 |
| COc1cc2ncnc(Nc3ccc(F)c(Cl)c3)c2cc1NC(=O)/C=C/CN1CCCCC1 [Dacomitinib] (100 nM) | 92.7 | 99.5 | 96.7 | 87.4 | 101 | 97.8 | 89.4 | 70.4 | 80.4 | 96.8 | 74.8 | 102 | 109 | 78.7 | 99.1 | 100 | 98.9 | 93.3 | 96.2 | 99.7 | 72.7 | 101 | 82 | 38.9 | 68.6 | 94 | 61 | 92.1 | 87.1 | 94.9 | 36.1 | 97.5 | 112 | 110 | 105 | 95.4 | 94.3 |
